Marks after values point to notes of the source that are not given here.
Legend:
[1] = Average particle size of milled nanoparticle suspensions (light scattering); settings: for average particle size: light scattering
Procedure: WIN 70146 (an iodinated X-ray contrast agent prepared according to Example 23 below) was added to each of 3×1.5 oz brown glass bottles containing approximately 12 ml of zirconium silicate, 1.1 mm diameter beads in an amount sufficient to be 15% (wt/vol %) of the final suspension. Bottle A was also made 3% (wt/vol %) Pluronic F-68 while bottle B was made 3% (wt/vol %)) Pluronic F-108 and bottle C was made 3% (wt/vol %) Tetronic T-908. The resulting suspensions were milled at approx 150 rpm for a total of 9 days with estimates of particle size determined at various intervals as detailed below.
WIN 70146 was milled with 1.1 mm diameter zirconium silicate beads for 3 days under aseptic conditions. The concentration of this agent was 15% WIN 70146 in the presence of 4% Pluronic F-108. No additional salts or surfactants were added.
WIN 70146 was milled with 1.1 mm diameter zirconium silicate beads in the presence of Pluronic F-108 for 3 days. […] At this point, sterile PEG 400 was added to the suspension such that at completion, the formulation contained 15% (wt/vol %) WIN 70146, 3% (wt/vol %) Pluronic F-108 and 10% PEG 400.
(§1) This suspension was then diluted in water to various levels listed below. The percent of incident light transmitted was then determined for each suspension at several wavelengths (see below). The suspensions were then dissolved by addition of methanol and examined for percent transmitted light against an equivalent solvent blank.
A formulation of WIN 70177 (an iodinated X-ray contrast agent prepared according to Example 24) was prepared as 15 gm of WIN 70177/100 ml of suspension and 4.25-gm of Pluronic F108/100 ml of suspension and 10 gm of PEG 400/100 ml of suspension.
A formulation of WIN 67722 (an iodinated X-ray contrast agent as described in U.S. Pat. No. 5,322,679) was prepared as in Example 1 using 3% Pluronic F108 and 15% PEG 1450.
as §1

[2] = Percent of incident light transmitted by diluted nanoparticle suspension and by methanol-dissolved agent; format: physicochemical; settings: for % T suspension 632 nm / % T suspension 700 nm / % T suspension 820 nm / % T suspension 800 nm: nanoparticle suspension
Description: The results are given below.

[3] = Absorbance vs wavelength of dissolved and nanoparticle agent; format: physicochemical; settings: above 600 nm; for Absorbance vs wavelength of dissolved agent: dissolved (methanol); for Absorbance vs wavelength of nanoparticle agent: particulate suspension
[4] = Stability testing in fresh rat plasma; format: physicochemical; settings: nanoparticle suspension, F108/PEG 400
Procedure: (§2) A formulation of WIN 70177 (an iodinated X-ray contrast agent prepared according to Example 24) was prepared as 15 gm of WIN 70177/100 ml of suspension and 4.25-gm of Pluronic F108/100 ml of suspension and 10 gm of PEG 400/100 ml of suspension. The suspension was milled for 5 days after which the average particle size was determined by light scattering to be about 235 nm.

[5] = Stability testing in simulated gastric fluid; format: physicochemical; settings: nanoparticle suspension, F108/PEG 400
Procedure: as §2

[6] = Residence within the vasculature after injection; format: in vivo; settings: nanoparticles
Procedure: WIN 72115 was designed to be excited with incident radiation from an Argon Ion laser (in the green, near 514 nm) and emit light at wavelengths above that value. Thus, after injection, illumination of the patient with green light would stimulate emission of light of a slightly different wavelength that could be used for diagnostic purposes. The key features of this agent are that it can be prepared as nanoparticles, remain within the vasculature for greater than 15 minutes, provide both scattering and fluorescence contrast for light imaging. In place of WIN 72115, the photolabelled agent of Example 22 below may be used.

mice = system: mice
Procedure: WIN 70146 was prepared as in Example 10 and injected into the tail vein of mice at doses of 3 ml/kg, 15 ml/kg, and 30 ml/kg (ie. 0.45 gm/kg, 2.25 gm/kg and 4.5 gm/kg).

[7] = 3% Pluronic F108, 15% PEG 1450, milled 3 days, Coulter N4MD
[8] = methanol added, 0.150%, not fully dissolved
[9] = methanol added, 0.300%, not fully dissolved

Compound	% T solution 632 nm ([2]; dissolved by methanol, 0.015%) [%]	% T solution 700 nm ([2]; dissolved by methanol, 0.015%) [%]	% T solution 632 nm ([2]; dissolved by methanol, 0.0375%) [%]	% T solution 700 nm ([2]; dissolved by methanol, 0.0375%) [%]	% T solution 632 nm ([2]; dissolved by methanol, 0.075%) [%]	% T solution 700 nm ([2]; dissolved by methanol, 0.075%) [%]	% T solution 632 nm [2, 8]	% T solution 700 nm [2, 8]	% T solution 632 nm [2, 9]	% T solution 700 nm [2, 9]	% T suspension 632 nm ([2]; 0.015%) [%]	% T suspension 700 nm ([2]; 0.015%) [%]	% T suspension 632 nm ([2]; 0.0375%) [%]	% T suspension 700 nm ([2]; 0.0375%) [%]	% T suspension 632 nm ([2]; 0.075%) [%]	% T suspension 700 nm ([2]; 0.075%) [%]	% T suspension 632 nm ([2]; 0.150%) [%]	% T suspension 700 nm ([2]; 0.150%) [%]	% T suspension 632 nm ([2]; 0.300%) [%]	% T suspension 700 nm ([2]; 0.300%) [%]	other results
CCOC(=O)CCCCCOC(=O)c1c(I)c(NC(C)=O)c(I)c(NC(C)=O)c1I [WIN 67722]	99.9	99.9	100.2	100.2	100.1	100.2	48.2* %	55.3* %	1.3* %	3.5* %	47.9	57.1	20.5	29.9	4.8	9.9	0.2	1.0	0.0	0.0	average diameter after autoclaving ([1]; 3% Pluronic F108, 15% PEG 1450): 214 nm; particle size [1, 7]: 213 nm; particle size, small fraction [1, 7]: 537 nm; % T solution 820 nm ([2]; dissolved by methanol, 0.015%): 100.6%; % T solution 820 nm ([2]; dissolved by methanol, 0.0375%): 100.4%; % T solution 820 nm ([2]; dissolved by methanol, 0.075%): 100.4%; % T solution 820 nm [2, 8]: 65.5* %; % T solution 820 nm [2, 9]: 10.7* %; % T suspension 820 nm ([2]; 0.015%): 69.2%; % T suspension 820 nm ([2]; 0.0375%): 45.6%; % T suspension 820 nm ([2]; 0.075%): 22.1%; % T suspension 820 nm ([2]; 0.150%): 4.9%; % T suspension 820 nm ([2]; 0.300%): 0.2%; Absorbance vs wavelength of dissolved agent [3]: has virtually no absorbance at all even at 5 times the concentration; Absorbance vs wavelength of nanoparticle agent [3]: provides an exponential drop in absorbance with wavelength
CC(=O)Nc1c(I)c(NC(C)=O)c(I)c(C(=O)OCC(C(=O)OC(C)C)C(=O)OC(C)C)c1I [WIN 70177, Propanedioic Acid, [[3,5-bis(acetylamino)-2,4,6-triiodobenzoyl]oxy]methyl-bis(1-methylethyl)ester]	102.2	101.9	102.3	101.9	100.9	100.8	59.5* %	67.8* %	7.4* %	14.4* %	53.3	62.8	34.6	45.7	25.8	36.8	6.7	13.6	0.1	0.6	average diameter after autoclaving ([1]; 4.25% F108/10% PEG 400): 236 nm; average particle size ([1]; 15 gm agent, 4.25 gm Pluronic F108, 10 gm PEG 400 per 100 ml, milled 5 days): about 235 nm; % T solution 800 nm ([2]; dissolved by methanol, 0.015%): 101.8%; % T solution 800 nm ([2]; dissolved by methanol, 0.0375%): 101.8%; % T solution 800 nm ([2]; dissolved by methanol, 0.075%): 101.0%; % T solution 800 nm [2, 8]: 77.0* %; % T solution 800 nm [2, 9]: 26.8* %; % T suspension 800 nm ([2]; 0.015%): 73.1%; % T suspension 800 nm ([2]; 0.0375%): 59.1%; % T suspension 800 nm ([2]; 0.075%): 51.1%; % T suspension 800 nm ([2]; 0.150%): 26.3%; % T suspension 800 nm ([2]; 0.300%): 3.2%; Aggregation in fresh rat plasma [4]: did not show any aggregation; Aggregation in simulated gastric fluid [5]: did not show any aggregation; Absorbance vs wavelength of dissolved agent [3]: has virtually no absorbance at all even at 5 times the concentration; Absorbance vs wavelength of nanoparticle agent [3]: provides an exponential drop in absorbance with wavelength
CCOC(=O)c1c(I)c(NS(=O)(=O)c2cccc3c(N(C)C)cccc23)c(I)c(N(CC)C(C)=O)c1I [WIN 72115, 3-(N-Acetyl-N-ethylamino)-5-[(5-dimethylamino-1-naphthylsulfonyl)amino]-2,4,6-triiodobenzoic Acid Ethyl Ester]																					average particle size ([1]; 15 gm agent and 3 gm Pluronic F108 per 100 ml): 225 nm; Time remaining within the vasculature [6]: greater than 15 minutes; melting point: 238 to 240 °C
CCCCC(OC(=O)c1c(I)c(NC(C)=O)c(I)c(NC(C)=O)c1I)C(=O)OCC (centres unmarked) [WIN 70146, Benzoic Acid, 3,5-bis(acetylamino)-2,4,6-triiodo-1-(ethoxycarbonyl)pentyl ester]	100.4	100.3	99.9	99.9	99.9	99.8	41.4* %	51.9* %	1.2* %	4.0* %	54.7	64.5	25.4	36.6	7.7	15.4	0.5	1.9	0.0	0.1	average diameter after autoclaving ([1]; 4.25% F108/10% PEG 400): 228 nm; average particle size ([1]; 15% WIN 70146, 4% Pluronic F-108, milled 3 days): 162 nm; final particle size after autoclaving ([1]; 15% agent, 3% Pluronic F-108, 10% PEG 400, 121 degrees C. for 20 min): 248 nm; final particle size after milling ([1]; Pluronic F-108, milled 3 days, before PEG 400 and autoclaving): 235 nm; Stability to heat and shelf time of nanoparticle suspension ([1]; in F108 and T908, autoclaving, time on the shelf): excellent stability to heat (autoclaving) and time on the shelf; Untoward effects (mice; tail vein, 3, 15 and 30 ml/kg (0.45, 2.25, 4.5 gm/kg), 7 days): No untoward effects were noted; Gross observation after sacrifice (mice; tail vein, 3-30 ml/kg, after 7 days): did not reveal any obvious lesions or disfigurations; % T solution 820 nm ([2]; dissolved by methanol, 0.015%): 100.5%; % T solution 820 nm ([2]; dissolved by methanol, 0.0375%): 99.9%; % T solution 820 nm ([2]; dissolved by methanol, 0.075%): 99.9%; % T solution 820 nm [2, 8]: 66.2* %; % T solution 820 nm [2, 9]: 13.5* %; % T suspension 820 nm ([2]; 0.015%): 77.0%; % T suspension 820 nm ([2]; 0.0375%): 53.8%; % T suspension 820 nm ([2]; 0.075%): 31.8%; % T suspension 820 nm ([2]; 0.150%): 8.6%; % T suspension 820 nm ([2]; 0.300%): 0.8%; Absorbance vs wavelength of dissolved agent [3]: does not show any evidence of light absorbance from 600 to 800 nm; Absorbance vs wavelength of nanoparticle agent [3]: shows a classic absorbance decay due to scattering of the incident light
